Assay results published in US20230286973A1, “PROTEIN SECRETION INHIBITORS” (KEZAR LIFE SCIENCES, priority 2020, published 2023).
pEC50, pIC50: −log10 of the molar value. Read-outs that look alike come from different tables or passages of the source.

Assays:
[1] = tested on: PD1-ss+10aa/Gaussia Luciferase; assay: Dox-Induced PD1-ss-Gluc Assay; assay type: cell-based; conditions: 24 hr Dox induction, 293FRT/TO cells, read-out: 24 hr Dox Inducible PD1ssGluc 293FRT/TO: Mean IC50
How it was run: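 Flp-In 293 T-REx, stable line; Tet-regulated PD1-ss+10aa fused to Gaussia luciferase; plated day prior; cpd + doxycycline in DMSO/media; 37 °C, 5% CO2.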

[2] = tested on: TNFα-FL/Gaussia Luciferase; assay: Dox Induced TNFα-FL-Gluc Assay; assay type: cell-based; conditions: for pIC50: 24 hr Dox induction, 293FRT/TO cells, read-out: 24 hr Dox Inducible TNFaFLGluc 293FRT/TO: Mean IC50; for 24 hr Dox Inducible TNFaFLGluc 293FRT/TO: TNF/PD1: ratio of TNFaFLGluc IC50 to PD1ssGluc IC50
How it was run: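 Flp-In 293 T-REx cells stably carrying doxycycline-inducible full-length TNFα (aa 1-233) fused to Gaussia luciferase. Plated the day before, then treated with compound dilutions in doxycycline-containing medium at 37° C, 5% CO2.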

[3] = tested on: HER3-ss+4aa/Gaussia Luciferase; assay: Dox-Induced Her3-ss-Gluc Assay; assay type: cell-based; conditions: 24 hr Dox induction, 293FRT/TO cells, read-out: 24 hr Dox Inducible Her3(ss + 4)Gluc 293FRT/TO: Mean IC50
How it was run: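 Stable Flp-In 293 T-REx cells carried a doxycycline-inducible HER3 signal sequence (+4 aa) fused to Gaussia luciferase. Cells were plated the day before the assay. Compound dilutions in DMSO/media containing doxycycline were then added, and plates were incubated at 37 °C, 5% CO2.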

[4] = tested on: IL-2-FL/Gaussia Luciferase; assay: Dox Induced IL2-FL-Gluc Assay; assay type: cell-based; conditions: for pIC50: 24 hr Dox induction, 293FRT/TO cells, read-out: 24 hr Dox Inducible IL2FLGluc 293FRT/TO: Mean IC50; for 24 hr Dox Inducible IL2FLGluc 293FRT/TO: IL2/PD1: ratio of IL2FLGluc IC50 to PD1ssGluc IC50
How it was run: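 Stable Flp-In 293 T-REx cells carrying doxycycline-inducible full-length IL-2 (aa 1-153) fused to Gaussia luciferase, plated the day before assay. Compound dilutions added in medium containing doxycycline, incubated at 37 °C, 5% CO2. Undefined stereocentres mean data refer to stereoisomer mixtures.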

[5] = tested on: multiple myeloma cell line NCI-H929; assay: H929 Cell Viability Assay; assay type: cell-based, human; conditions: Homo sapiens, NCI-H929, 48 h, NCI-H929 cells, Celltiter-Glo
How it was run: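 NCI-H929 cells in RPMI 1640 with 10% FBS were treated with compound dilutions for 48 h at 37° C, 5% CO2. Viability was read by CellTiter-Glo luminescence. Undefined stereocentres denote stereoisomer mixtures.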

[6] = tested on: multiple myeloma cell line U266B1; assay: U266 Cell Viability Assay; assay type: cell-based, human; conditions: Homo sapiens, U-266, 48 h, U266B1 cells, Celltiter-Glo
How it was run: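 U266B1 multiple myeloma cells in RPMI 1640/10% FBS were treated with compound dilutions for 48 h at 37 °C, 5% CO2. Viability was measured by CellTiter-Glo luminescence; compounds drawn without stereochemistry were tested as stereoisomer mixtures.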

[7] = Liver Microsome Stability Assay (rat); conditions: rat liver microsomes, with NADPH, 1.0 uM compound
Procedure: (§1) Stability of a compound was assessed in the presence of liver microsomes from various sources—mouse, rat, monkey and human liver microsomes. 1.0 uM compound, 0.4% DMSO in 0.1 M Potassium Phosphate with 1.0 mg/mL liver microsomes, were incubated at 37° C. with or without 1 mM NADPH. The samples were quenched at 0, and 30 minutes.

[8] = Liver Microsome Stability Assay (mouse); conditions: mouse liver microsomes, with NADPH, 1.0 uM compound
Procedure: as §1

[9] = Liver Microsome Stability Assay (human); conditions: human liver microsomes, with NADPH, 1.0 uM compound
Procedure: as §1

[10] = Liver Microsome Stability Assay (monkey); conditions: monkey liver microsomes, with NADPH, 1.0 uM compound
Procedure: as §1

[11] = '<=>' given where both are I.A.

Row | SMILES | pIC50 [1] | pIC50 [2] | 24 hr Dox Inducible TNFaFLGluc 293FRT/TO: TNF/PD1 [2] | pIC50 [3] | pIC50 [4] | 24 hr Dox Inducible IL2FLGluc 293FRT/TO: IL2/PD1 [4] | pEC50 [5] | pEC50 [6] | Liver Microsome Stability (Multiple Species): Rat - % Remaining after 30 min w/NADPH [7] | Liver Microsome Stability (Multiple Species): Mouse - % Remaining after 30 min w/NADPH [8] | Liver Microsome Stability (Multiple Species): Human - % Remaining after 30 min w/NADPH [9] | Liver Microsome Stability (Multiple Species): Monkey - % Remaining after 30 min w/NADPH [10] | pIC50 ([1]; mean) | pIC50 ([2]; mean) | 24 hr Dox Inducible TNFaFLGluc 293FRT/TO: TNF/PD1 [2, 11] | pIC50 ([3]; mean) | pIC50 ([4]; mean) | 24 hr Dox Inducible IL2FLGluc 293FRT/TO: IL2/PD1 [4, 11]
1 | NC(=O)N1CC(Oc2ccc(N3CCC[C@@H]3c3csc(NC(=O)c4cccn4Cc4ccnc(F)c4)n3)cc2)C1 [Compound A130, (R)-N-(4-(1-(4-((1-carbamoylazetidin-3-yl)oxy)phenyl)pyrrolidin-2-yl)thiazol-2-yl)-1-((2-fluoropyridin-4-yl)methyl)-1H-pyrrole-2-carboxamide] | 7.80 | 6.17 | 43.1 | 7.56 | 7.18 | 4.2 | 6.14 | < 4.60 | 52.7% | 53% | 32.5% | 25.4% | – | – | – | – | – | –
2 | COc1ccc(O[C@H]2CC[C@@H](c3csc(NC(=O)c4cccn4Cc4ccncc4)n3)CC2)nc1 [Compound E35, N-(4-((1s,4s)-4-((5-methoxypyridin-2-yl)oxy)cyclohexyl)thiazol-2-yl)-1-(pyridin-4-ylmethyl)-1H-pyrrole-2-carboxamide] | – | – | – | – | – | – | 5.06 | 4.74 | 1.2% | 0.08% | 0.41% | 0.7% | 6.83 | 5.32 | 32.6 | 6.41 | 6.03 | 6.3
3 | Cc1c(/C=C/c2csc(NC(=O)c3cccn3Cc3ccnc(F)c3)n2)ncn1C(C)CO (stereo not drawn) [Compound B118, (E)-1-((2-fluoropyridin-4-yl)methyl)-N-(4-(2-(1-(1-hydroxypropan-2-yl)-5-methyl-1H-imidazol-4-yl)vinyl)thiazol-2-yl)-1H-pyrrole-2-carboxamide] | – | – | – | – | – | – | < 4.60 | < 4.60 | 14.9% | 40.4% | 0.37% | 0.21% | 6.61 | < 4.60 | >101 | < 4.60 | < 4.60 | >100
4 | O=C(Nc1nc([C@H]2CCCN2c2ccccc2)cs1)c1cccn1CCc1nnn[nH]1 [Compound C16, (R)-1-(2-(1H-tetrazol-5-yl)ethyl)-N-(4-(1-phenylpyrrolidin-2-yl)thiazol-2-yl)-1H-pyrrole-2-carboxamide] | – | – | – | – | – | – | < 4.60 | < 4.60 | 3.26% | 26.7% | 8.13% | 78.9% | 5.09 | < 4.60 | >3.09 | 5.05 | 5.16 | 0.85
5 | Cc1ocnc1/C=C/c1csc(NC(=O)c2cccn2Cc2ccncc2)n1 [Compound B33, (E)-N-(4-(2-(5-methyloxazol-4-yl)vinyl)thiazol-2-yl)-1-(pyridin-4-ylmethyl)-1H-pyrrole-2-carboxamide] | 7.20 | < 4.60 | >392 | 5.25 | 5.04 | 140 | 4.62 | < 4.60 | 0.28% | 4.32% | 0.68% | 1.26% | – | – | – | – | – | –
6 | CN(C)CCOc1ccc(N2CCC[C@@H]2c2csc(NC(=O)c3cccn3Cc3ccnc(F)c3)n2)cc1 [Compound A104, (R)-N-(4-(1-(4-(2-(dimethylamino)ethoxy)phenyl)pyrrolidin-2-yl)thiazol-2-yl)-1-((2-fluoropyridin-4-yl)methyl)-1H-pyrrole-2-carboxamide] | 6.81 | 5.39 | 26.3 | 6.45 | 6.36 | 2.8 | 5.50 | 5.24 | 27.9% | 16.5% | 68.8% | 51.6% | – | – | – | – | – | –
7 | CNc1ccc(N2CCC[C@@H]2c2csc(NC(=O)c3cccn3Cc3ccncc3)n2)cc1 [Compound A15] | 7.47 | 6.06 | 25.6 | 7.14 | 7.01 | 2.8 | 6.12 | 5.13 | 17.7% | 10.5% | 5.24% | 1.86% | – | – | – | – | – | –
8 | CCc1ccc(N2CCC[C@@H]2c2csc(NC(=O)c3cccn3Cc3ccncc3)n2)cn1 [Compound C95, (R)-N-(4-(1-(6-ethylpyridin-3-yl)pyrrolidin-2-yl)thiazol-2-yl)-1-(pyridin-4-ylmethyl)-1H-pyrrole-2-carboxamide] | – | – | – | – | – | – | 6.90 | 4.71 | 1.89% | 0.28% | 0.44% | 0.11% | 8.30 | 6.98 | 20.5 | 8.46 | 7.81 | 3.1
9 | O=C(Nc1nc([C@H]2CCCN2c2ccc(O[C@H]3CCCNC3)cc2)cs1)c1cccn1Cc1ccnc(F)c1 [Compound A88, 1-((2-fluoropyridin-4-yl)methyl)-N-(4-((R)-1-(4-(((S)-piperidin-3-yl)oxy)phenyl)pyrrolidin-2-yl)thiazol-2-yl)-1H-pyrrole-2-carboxamide] | 6.02 | 4.96 | 11.5 | 5.92 | 5.48 | 3.5 | 5.13 | 4.94 | 76% | 71.7% | 57.6% | 3.2% | – | – | – | – | – | –
